Measured values from patent US20230096766A1, “AMINO ACID HAVING FUNCTIONAL GROUP CAPABLE OF INTERMOLECULAR HYDROGEN BONDING, PEPTIDE COMPOUND CONTAINING SAME AND METHOD FOR PRODUCTION THEREOF” (Chugai Seiyaku Kabushiki Kaisha, priority 2018, published 2023).
*1 amine or outer side, *2 acyl side, *3 side chain or, on linkers, in order; H or OH if unused. Where a SMILES comes first, the peptide text is derived from it. Bridges are numbered along the chain shown (N, C = ends). [ ]: non-standard residue; d: D form. The star is where a group is joined. ξ: configuration not given here. X5 = O=C([C@H](CCC[C@@H]1CC(F)(F)CN1)N[*:1])[*:2]; CH2(1,2,4-oxadiazolon-3-yl) = O=c1[nH]c(C*)no1; NMePhe(3-Cl) = CN[C@@H](Cc1cccc(Cl)c1)C(=O)O; Pro(4,4-F2)ψ(CH2) = FC1(F)CN[C@H](C*)C1; NMeF = CN[C@@H](Cc1ccccc1)C(=O)O; NMeGABA = CN(CCCC(=O)[*:2])[*:1]; NMeL = CN[C@@H](CC(C)C)C(=O)O; Butyl(3R-OH) = C[C@@H](O)CC*; Propyl(2R-OH) = C[C@@H](O)C*; NMeV = CN[C@H](C(=O)O)C(C)C; ξIle = CC[C@H](C)C(N)C(=O)O; NMeAbu = CC[C@H](NC)C(=O)O; NMeA = CN[C@@H](C)C(=O)O; Piperidide = C1CCN(*)CC1; Me2NCH2CH2 = CN(C)CC*; NBuGly = CCCCNCC(=O)O; Propyl(3-OH) = OCCC*; ξS = NC(CO)C(=O)O; Sar = CNCC(=O)O; tBu = CC(C)(C)*

test: Membrane permeability test of cyclic peptides (Caco-2, modified/improved method of WO 2018/124162); conditions: human, Caco-2, Caco-2 (cm/sec), membrane permeability of cyclic peptides, Caco-2

Structure (SMILES)	Papp [×10⁻⁶ cm/s]
CCCCN1CC(=O)N(C)[C@@H](Cc2cccc(Cl)c2)C(=O)N(C)[C@@H](CC(C)C)C(=O)N[C@@H]([C@@H](C)CC)C(=O)N(C)[C@@H](CC(C)C)C(=O)N[C@H](C(=O)N2CCCCC2)CC(=O)N(C)CC(=O)N(C)[C@@H](CC(C)C)C(=O)NC(COCc2noc(=O)[nH]2)C(=O)N(C)[C@@H](CC(C)C)C(=O)N[C@@H]([C@@H](C)O)C1=O (stereo partly drawn) [AP49] ([Sar][NMeL][ξS](CH2(1,2,4-oxadiazolon-3-yl))[NMeL]T[NBuGly][NMePhe(3-Cl)][NMeL]I[NMeL]D-Piperidide; lactam N-11)	0.33
CCCCN1CC(=O)N(C)[C@@H](Cc2cccc(Cl)c2)C(=O)N(C)[C@@H](CC(C)C)C(=O)N[C@@H](COCc2noc(=O)[nH]2)C(=O)N(C)[C@@H](CC(C)C)C(=O)N[C@H](C(=O)N2CCCCC2)CC(=O)N(C)CC(=O)N(C)[C@@H](CC(C)C)C(=O)N[C@@H]([C@@H](C)CC)C(=O)N(C)[C@@H](CC(C)C)C(=O)N[C@@H]([C@@H](C)O)C1=O [AP50] ([Sar][NMeL]I[NMeL]T[NBuGly][NMePhe(3-Cl)][NMeL]S(CH2(1,2,4-oxadiazolon-3-yl))[NMeL]D-Piperidide; lactam N-11)	0.11
CC[C@H](C)[C@@H]1NC(=O)[C@H](CC(C)C)N(C)C(=O)[C@H](COC(C)(C)C)NC(=O)[C@H](Cc2ccccc2)N(C)C(=O)[C@H](Cc2ccccc2)N(C)C(=O)[C@H](COC[C@@H](C)O)NC(=O)[C@H](CC(C)C)N(C)C(=O)CCCN(C)C(=O)C[C@@H](C(=O)N2CCCCC2)NC(=O)[C@H](CC(C)C)N(C)C(=O)[C@H](CC(C)C)N(C)C1=O [AP84] ([NMeGABA][NMeL]S(Propyl(2R-OH))[NMeF][NMeF]S(tBu)[NMeL]I[NMeL][NMeL]D-Piperidide; lactam N-11)	0.58
CC[C@H](C)[C@@H]1NC(=O)[C@H](CC(C)C)N(C)C(=O)CCCN(C)C(=O)C[C@@H](C(=O)N2CCCCC2)NC(=O)[C@H](CC(C)C)N(C)C(=O)[C@H](CC(C)C)N(C)C(=O)[C@H]([C@@H](C)O)NC(=O)[C@H](CC(C)C)N(C)C(=O)C(COCc2noc(=O)[nH]2)NC(=O)[C@H](CC(C)C)N(C)C(=O)[C@H](Cc2cccc(Cl)c2)N(C)C1=O (stereo partly drawn) [AP46] ([NMeGABA][NMeL]I[NMePhe(3-Cl)][NMeL][ξS](CH2(1,2,4-oxadiazolon-3-yl))[NMeL]T[NMeL][NMeL]D-Piperidide; lactam N-11)	0.22
CC(C)C[C@@H]1NC(=O)[C@H](C(C)C)N(C)C(=O)C[C@@H](C(=O)N2CCCCC2)NC(=O)[C@H](CC(C)C)N(C)C(=O)CN(C)C(=O)[C@H]([C@@H](C)O)NC(=O)[C@H](C(C)C)N(C)C(=O)[C@H](Cc2ccccc2)N(C)C(=O)[C@H](COCC[C@@H](C)O)NC(=O)[C@H](Cc2ccccc2)N(C)C(=O)[C@H](CC(C)C)N(C)C1=O [AP113] ([NMeV]L[NMeL][NMeF]S(Butyl(3R-OH))[NMeF][NMeV]T[Sar][NMeL]D-Piperidide; lactam N-11)	1.7
CC(C)C[C@@H]1NC(=O)[C@H](Cc2ccccc2)N(C)C(=O)[C@H](CC(C)C)N(C)C(=O)[C@H](COCCCO)NC(=O)[C@H](CC(C)C)N(C)C(=O)C[C@@H](C(=O)N2CCCCC2)NC(=O)[C@H](CC(C)C)N(C)C(=O)CN(C)C(=O)[C@H]([C@@H](C)O)NC(=O)[C@H](CC(C)C)N(C)C(=O)[C@H](Cc2cccc(Cl)c2)N(C)C1=O [AP97] ([NMeL]S(Propyl(3-OH))[NMeL][NMeF]L[NMePhe(3-Cl)][NMeL]T[Sar][NMeL]D-Piperidide; lactam N-11)	0.21

same assay, conditions: human, Caco-2, Caco-2 (membrane permeability), Table 10, cyclic peptides containing Ser(S-4-F2-Pyrro-Me) (G) or Nva(2-R-4-F2-Pyrro) (H)

Structure (SMILES)	Papp [×10⁻⁶ cm/s]
CCCCN1CC(=O)N(C)[C@@H](CC(C)C)C(=O)N[C@@H](COC[C@@H]2CC(F)(F)CN2)C(=O)N(C)[C@@H](CC(C)C)C(=O)N(C)[C@@H](CC(C)C)C(=O)N[C@H](C(=O)N2CCCCC2)CC(=O)N[C@H](C(C)C)C(=O)N(C)[C@@H](Cc2ccccc2)C(=O)N[C@@H](CC(C)C)C(=O)N(C)[C@@H](CC)C(=O)N[C@@H]([C@@H](C)O)C1=O [Compound G01] ([dV][NMeF]L[NMeAbu]T[NBuGly][NMeL]S(Pro(4,4-F2)ψ(CH2))[NMeL][NMeL]D-Piperidide; lactam N-11)	0.53
CCCCN1CC(=O)N(C)[C@@H](Cc2ccccc2)C(=O)N(C)[C@@H](CC(C)C)C(=O)N[C@@H](COC[C@@H]2CC(F)(F)CN2)C(=O)N(C)[C@@H](CC(C)C)C(=O)N[C@H](C(=O)N2CCCCC2)CC(=O)N(C)CC(=O)N(C)[C@@H](CC(C)C)C(=O)NC([C@@H](C)CC)C(=O)N(C)[C@@H](CC(C)C)C(=O)N[C@@H]([C@@H](C)O)C1=O (stereo partly drawn) [Compound G07] ([Sar][NMeL][ξIle][NMeL]T[NBuGly][NMeF][NMeL]S(Pro(4,4-F2)ψ(CH2))[NMeL]D-Piperidide; lactam N-11)	0.57
CCCCN1CC(=O)N(C)[C@@H](CC)C(=O)N[C@@H](COC[C@@H]2CC(F)(F)CN2)C(=O)N(C)[C@@H](Cc2ccccc2)C(=O)N(C)[C@@H](CC)C(=O)N[C@H](C(=O)N2CCCCC2)CC(=O)N[C@H](CC(C)C)C(=O)N(C)[C@@H](CC(C)C)C(=O)N[C@@H](C(C)C)C(=O)N(C)[C@@H](CC(C)C)C(=O)N[C@@H]([C@@H](C)O)C1=O [Compound G02] ([dL][NMeL]V[NMeL]T[NBuGly][NMeAbu]S(Pro(4,4-F2)ψ(CH2))[NMeF][NMeAbu]D-Piperidide; lactam N-11)	0.4
CCCCN1CC(=O)N(C)[C@@H](CC(C)C)C(=O)N[C@@H](COC(C)(C)C)C(=O)N(C)[C@@H](Cc2ccccc2)C(=O)N(C)[C@@H](CC)C(=O)N[C@H](C(=O)N2CCCCC2)CC(=O)N[C@H](C)C(=O)N(C)[C@@H](CC)C(=O)N[C@@H](C(C)C)C(=O)N(C)[C@@H](CC(C)C)C(=O)N[C@@H](COC[C@@H]2CC(F)(F)CN2)C1=O [Compound G08] ([dA][NMeAbu]V[NMeL]S(Pro(4,4-F2)ψ(CH2))[NBuGly][NMeL]S(tBu)[NMeF][NMeAbu]D-Piperidide; lactam N-11)	1.3
CC[C@H](C)[C@@H]1NC(=O)[C@H](CC(C)C)N(C)C(=O)CCCN(C)C(=O)C[C@@H](C(=O)N2CCCCC2)NC(=O)[C@H](CC(C)C)N(C)C(=O)[C@H](CC(C)C)N(C)C(=O)[C@H]([C@@H](C)O)NC(=O)[C@H](CC(C)C)N(C)C(=O)[C@H](COC[C@@H]2CC(F)(F)CN2)NC(=O)[C@H](CC(C)C)N(C)C(=O)[C@H](Cc2ccccc2)N(C)C1=O [Compound G03] ([NMeGABA][NMeL]I[NMeF][NMeL]S(Pro(4,4-F2)ψ(CH2))[NMeL]T[NMeL][NMeL]D-Piperidide; lactam N-11)	0.23
CC(C)C[C@H]1C(=O)N[C@@H](C(C)C)C(=O)N(C)[C@@H](Cc2ccccc2)C(=O)N(C)[C@@H](C)C(=O)N[C@@H](COC(C)(C)C)C(=O)N(C)[C@@H](CC(C)C)C(=O)N[C@@H](CCC[C@@H]2CC(F)(F)CN2)C(=O)N(C)[C@@H](CC(C)C)C(=O)N(C)[C@@H](CC(C)C)C(=O)N[C@H](C(=O)N2CCCCC2)CC(=O)N(C)CCCC(=O)N1C [Compound H09] ([NMeGABA][NMeL]V[NMeF][NMeA]S(tBu)[NMeL][X5][NMeL][NMeL]D-Piperidide; lactam N-11)	0.52
CCCCN1CC(=O)N(C)[C@@H](CC(C)C)C(=O)N[C@@H](COC(C)(C)C)C(=O)N(C)[C@@H](Cc2ccccc2)C(=O)N(C)[C@@H](C)C(=O)N[C@H](C(=O)N2CCCCC2)CC(=O)N[C@H](C)C(=O)N(C)[C@@H](CC)C(=O)N[C@@H](C(C)C)C(=O)N(C)[C@@H](CC(C)C)C(=O)N[C@@H](CCC[C@@H]2CC(F)(F)CN2)C1=O [Compound H08] ([dA][NMeAbu]V[NMeL][X5][NBuGly][NMeL]S(tBu)[NMeF][NMeA]D-Piperidide; lactam N-11)	0.92
CCCCN1CC(=O)N(C)[C@@H](C)C(=O)N[C@@H](CCC[C@@H]2CC(F)(F)CN2)C(=O)N(C)[C@@H](Cc2ccccc2)C(=O)N(C)[C@@H](CC)C(=O)N[C@H](C(=O)N2CCCCC2)CC(=O)N[C@H](CC(C)C)C(=O)N(C)[C@@H](CC(C)C)C(=O)N[C@@H](C(C)C)C(=O)N(C)[C@@H](CC(C)C)C(=O)N[C@@H]([C@@H](C)O)C1=O [Compound H02] ([dL][NMeL]V[NMeL]T[NBuGly][NMeA][X5][NMeF][NMeAbu]D-Piperidide; lactam N-11)	0.14

same assay, conditions: human, Caco-2, Caco-2, Papp, membrane permeability; cyclic peptides comprising Ser(Et-2-NMe2) or Gln(Ms) (Table 27)

Structure (SMILES)	Papp [×10⁻⁶ cm/s]
CC(C)C[C@@H]1NC(=O)[C@H](Cc2ccccc2)N(C)C(=O)[C@H](Cc2ccccc2)N(C)C(=O)[C@H](COCCN(C)C)NC(=O)[C@H](CC(C)C)N(C)C(=O)CCCN(C)C(=O)C[C@@H](C(=O)N2CCCCC2)NC(=O)[C@H](CC(C)C)N(C)C(=O)[C@H](CC(C)C)N(C)C(=O)[C@H]([C@@H](C)O)NC(=O)[C@H](CC(C)C)N(C)C1=O [pd55] ([NMeGABA][NMeL]S(Me2NCH2CH2)[NMeF][NMeF]L[NMeL]T[NMeL][NMeL]D-Piperidide; lactam N-11)	0.1

test: in vitro; conditions: human, Caco-2, Caco-2 (cm/sec)

Structure (SMILES)	Papp [×10⁻⁶ cm/s]
CCCCN1CC(=O)N(C)[C@@H](Cc2cccc(Cl)c2)C(=O)N(C)[C@@H](CC(C)C)C(=O)N[C@@H](COCC[C@@H](C)O)C(=O)N(C)[C@@H](CC(C)C)C(=O)N[C@H](C(=O)N2CCCCC2)CC(=O)N(C)CC(=O)N(C)[C@@H](Cc2ccccc2)C(=O)N[C@@H](C(C)C)C(=O)N(C)[C@@H](CC(C)C)C(=O)N[C@@H]([C@@H](C)O)C1=O [AP114] ([Sar][NMeF]V[NMeL]T[NBuGly][NMePhe(3-Cl)][NMeL]S(Butyl(3R-OH))[NMeL]D-Piperidide; lactam N-11)	0.28
CC[C@H](C)[C@@H]1NC(=O)[C@H](CC(C)C)N(C)C(=O)CCCN(C)C(=O)C[C@@H](C(=O)N2CCCCC2)NC(=O)[C@H](CC(C)C)N(C)C(=O)[C@H](CC(C)C)N(C)C(=O)[C@H]([C@@H](C)O)NC(=O)[C@H](CC(C)C)N(C)C(=O)[C@H](Cc2ccc(O)cc2)NC(=O)[C@H](CC(C)C)N(C)C(=O)[C@H](Cc2ccccc2)N(C)C1=O [Compound F03] ([NMeGABA][NMeL]I[NMeF][NMeL]Y[NMeL]T[NMeL][NMeL]D-Piperidide; lactam N-11)	0.13
